± gives the expanded uncertainty stated by the source.
Assay: xn = mol fraction of the nth substance listed
Details: 101 kPa, Liquid

OCCN1CCOCC1 [4-morpholineethanol] + O
Details	mass density, 293.15 K [kg/m3]	mass density, 303.15 K [kg/m3]	mass density, 313.15 K [kg/m3]	mass density, 323.15 K [kg/m3]	mass density, 333.15 K [kg/m3]	viscosity, 293.15 K [mPa·s]	viscosity, 303.15 K [mPa·s]	viscosity, 313.15 K [mPa·s]	viscosity, 323.15 K [mPa·s]	viscosity, 333.15 K [mPa·s]
x1 = 0.0628	1041.44 ± 2.3	1033.11 ± 2.1	1024.47 ± 1.9	1017.66 ± 1.8	1012.27 ± 1.7	14.46 ± 1	9.721 ± 0.73	8.148 ± 0.63	6.767 ± 0.54	4.413 ± 0.39
x1 = 0.1126	1061.42 ± 2.6	1052.36 ± 2.5	1043.65 ± 2.3	1035.57 ± 2.2	1029.49 ± 2	22.98 ± 1.5	18.02 ± 1.2	13.55 ± 0.96	11.37 ± 0.83	9.233 ± 0.7
x1 = 0.1985	1078.87 ± 3	1069.04 ± 2.8	1060.34 ± 2.6	1052.34 ± 2.5	1044.12 ± 2.3	33.29 ± 2.2	27.47 ± 1.8	22.61 ± 1.5	17.84 ± 1.2	13.91 ± 0.99
x1 = 0.2466	1083.81 ± 3.1	1073.73 ± 2.9	1065.05 ± 2.7	1057.12 ± 2.6	1048.47 ± 2.4	–	–	–	–	–
x1 = 0.2887	1086.11 ± 3.1	1075.86 ± 2.9	1067.22 ± 2.8	1059.03 ± 2.6	1050.37 ± 2.5	39.28 ± 2.6	33.52 ± 2.2	28.26 ± 1.9	23.09 ± 1.6	17.82 ± 1.2
x1 = 0.3459	1087.54 ± 3.2	1077.13 ± 3	1068.55 ± 2.8	1060.61 ± 2.7	1051.89 ± 2.5	41.75 ± 2.7	35.73 ± 2.3	30.86 ± 2	25.45 ± 1.7	19.93 ± 1.4
x1 = 0.4127	1087.67 ± 3.2	1077.14 ± 3	1068.64 ± 2.8	1061.07 ± 2.7	1052.63 ± 2.5	43.23 ± 2.8	37.33 ± 2.4	31.64 ± 2.1	25.94 ± 1.7	20.12 ± 1.4
x1 = 0.4852	1086.69 ± 3.2	1076.07 ± 3	1067.65 ± 2.8	1060.28 ± 2.7	1052.39 ± 2.5	44.02 ± 2.9	37.36 ± 2.4	31.41 ± 2.1	25.4 ± 1.7	19.72 ± 1.3
x1 = 0.5438	1085.22 ± 3.2	1074.56 ± 3	1066.2 ± 2.8	1058.66 ± 2.7	1051.46 ± 2.5	–	–	–	–	–
x1 = 0.5842	1084.37 ± 3.2	1073.69 ± 3	1065.37 ± 2.8	1057.87 ± 2.7	1050.71 ± 2.5	43.33 ± 2.8	36.22 ± 2.4	29.62 ± 2	23.17 ± 1.6	18.58 ± 1.3
x1 = 0.6438	1082.81 ± 3.1	1072.11 ± 3	1063.85 ± 2.8	1056.41 ± 2.6	1049.64 ± 2.5	42.3 ± 2.7	34.92 ± 2.3	28.05 ± 1.9	21.34 ± 1.4	16.15 ± 1.1
x1 = 0.6878	1081.6 ± 3.1	1070.89 ± 2.9	1062.67 ± 2.8	1055.27 ± 2.6	1048.84 ± 2.5	–	–	–	–	–
x1 = 0.7439	1080.31 ± 3.1	1069.59 ± 2.9	1061.41 ± 2.8	1054.22 ± 2.6	1047.82 ± 2.5	39.78 ± 2.6	32.9 ± 2.2	25.58 ± 1.7	19.58 ± 1.3	14.06 ± 1
x1 = 0.8238	1078.68 ± 3.1	1068.19 ± 2.9	1060.06 ± 2.8	1053.44 ± 2.6	1047.09 ± 2.5	36.28 ± 2.4	30.25 ± 2	23.38 ± 1.6	18.01 ± 1.2	12.67 ± 0.91
x1 = 0.8846	1077.69 ± 3.1	1067.27 ± 2.9	1059.5 ± 2.8	1052.95 ± 2.7	1046.7 ± 2.5	33.61 ± 2.2	27.11 ± 1.8	22.16 ± 1.5	16.98 ± 1.2	11.26 ± 0.82
x1 = 0.9486	1077.17 ± 3.1	1066.94 ± 3	1059.41 ± 2.8	1052.79 ± 2.7	1046.54 ± 2.6	–	–	–	–	–
x1 = 1	1076.58 ± 3.1	1066.51 ± 3	1059.19 ± 2.8	1052.64 ± 2.7	1046.43 ± 2.6	26.58 ± 1.8	21.99 ± 1.5	17.32 ± 1.2	12.86 ± 0.92	8.284 ± 0.64

Reference: the NIST ThermoML archive (doi:10.1016/j.jct.2008.01.007)
